The numbers were not newly measured in paper PMC6311893, “Computational prediction of plasma protein binding of cyclic peptides from small molecule experimental data using sparse modeling techniques” (BMC Bioinformatics, 2018), which cites them from elsewhere.

Where two headings read alike, the source gives them in different places.

For the data set, the system named is plasma protein. The settings on record: cited from earlier work.
The mark [1] stands for this setting: fraction bound to plasma protein, small molecule dataset, sheet 1-SM (Set Dte = test, Dtr = training), ref Ingle et al.
Where [2] appears, read: fraction bound to plasma protein, small molecule dataset, sheet 1-SM, ref Ingle et al.
Setting [3] is: fraction bound to plasma protein, small molecule dataset, sheet 1-SM, Set Dtr, ref Ingle et al.

With `COc1ccc(-n2cc(C(=O)O)c(=O)c3cc(F)c(N4CCN(C)CC4)cc32)cc1` [5ca (p-OCH3__N-CH3)], under setting [1], the “PPB (fb)” value is on record as 0.43.

In the case of `CCC(=O)O[C@](Cc1ccccc1)(c1ccccc1)[C@H](C)CN(C)C` [Propoxyphene], the “PPB (fb)” value (plasma) is listed as 0.75. As for `NS(=O)(=O)c1cc(-c2nnn[nH]2)c(NCc2cccs2)cc1Cl` [azosemide], under setting [1], the “PPB (fb)” value is reported as 0.96.

For the compound `Cc1nc(C)c(C)nc1C` [tetramethylpyrazine phosphate], the “PPB (fb)” value under setting [2] was 0.56. Take `CCN1CCCC1CNC(=O)c1cc(S(=O)(=O)CC)c(N)cc1OC` (centres unmarked) [amisulpride]: the “PPB (fb)” value under setting [1] is recorded as 0.16. As to `Cc1ccccc1-n1cc(C(=O)O)c(=O)c2cc(F)c(N3CCNCC3)cc21` [4a(o-CH3)], under setting [1], the “PPB (fb)” value is given as 0.37.

Consider `CC[C@@H](CO)NC(=O)[C@@H]1C=C2c3cccc4c3c(cn4C)C[C@H]2N(C)C1` [methysergide], for which the “PPB (fb)” value (plasma) is on record as 0.66. As for `CC(=O)OC1C(O)CC(OC2C(O)CC(OC3C(O)CC(OC4CCC5(C)C(CCC6C5CC(O)C5(C)C(C7=CC(=O)OC7)CCC65O)C4)OC3C)OC2C)OC1C` (stereo not drawn) [beta-acetyldigoxin], for the setting “plasma”, the “PPB (fb)” value is listed as 0.15. Turning to `CC(C)(O)c1ccccc1CC[C@@H](SCC1(CC(=O)O)CC1)c1cccc(/C=C/c2ccc3ccc(Cl)cc3n2)c1` [Montelukast], under setting [1], the “PPB (fb)” value is given as 0.99.

Take `CN(CC1(C)CCCO1)S(=O)(=O)c1ccc(Cl)c(S(N)(=O)=O)c1` (centres unmarked) [mefruside]: the “PPB (fb)” value under setting [2] is 0.65. Consider `C[C@](N)(Cc1ccc(O)c(O)c1)C(=O)O` [Methyldopa], for which the “PPB (fb)” value under setting [1] was 0.13. With `C[C@@H]1CCC[C@H](C)N1NC(=O)c1ccc(Cl)c(S(N)(=O)=O)c1` [clopamide], the “PPB (fb)” value under setting [1] was 0.5. On to `CCOCCC(=O)NC1C(=O)N2C1SC(C)(C)C2C(=O)O` (centres unmarked) [penicillin11], for which the “PPB (fb)” value under setting [2] is recorded as 0.25. For `COCCNC(=O)CN(CCN(CCN(CC(=O)O)CC(=O)NCCOC)CC(=O)O)CC(=O)O` [Gadoversetamide], under setting [3], the “PPB (fb)” value was 0. With `CC(N/C(=N\C#N)Nc1ccncc1)C(C)(C)C` (centres unmarked) [pinacidil], the “PPB (fb)” value under setting [1] is reported as 0.4.

For the compound `COc1ccc2c(c1)c(CC(=O)O)c(C)n2C(=O)c1ccc(Cl)cc1` [Indomethacin], the “PPB (fb)” value under setting [3] was 0.97. For the compound `CCC1(c2ccccc2)C(=O)NC(=O)NC1=O` [Phenobarbital], where the note is “plasma”, the “PPB (fb)” value is 0.43. Consider `CCCC(CCC)C(=O)O` [Valproic Acd], for which the “PPB (fb)” value under setting [2] was 0.9. In the case of `N[C@@H](Cc1c[nH]c2ccccc12)C(=O)O` [Tryptophan], the “PPB (fb)” value under setting [3] is 0.8. On to `O=C1Nc2ccc(Cl)cc2C(c2ccccc2Cl)=NC1O` (centres unmarked) [Lorazepam], for which the “PPB (fb)” value (plasma) is given as 0.91. For the compound `CC(/C=C1\SC(=S)N(CC(=O)O)C1=O)=C\c1ccccc1` [Epalrestat], the “PPB (fb)” value under setting [2] is 0.9. As for `C[C@@H](O)[C@H]1C(=O)N2C(C(=O)O)=C(S[C@@H]3CN[C@H](C(=O)Nc4cccc(C(=O)O)c4)C3)[C@H](C)[C@H]12` [Ertapenem], the “PPB (fb)” value under setting [3] was 0.91.

Regarding `CN1CCN(CC(=O)N2c3ccccc3C(=O)Nc3cccnc32)CC1` [pirenzepine], the “PPB (fb)” value under setting [2] is 0.1. For the compound Tetracycline, the “PPB (fb)” value (plasma) is reported as 0.36. Turning to `CC1Cc2ccccc2N1NC(=O)c1ccc(Cl)c(S(N)(=O)=O)c1` (centres unmarked) [indapamide], the “PPB (fb)” value under setting [2] is reported as 0.76. Consider `COc1cc(NS(=O)(=O)c2ccc(N)cc2)nc(OC)n1` [sulfadimethoxine], for which the “PPB (fb)” value under setting [2] is 0.95.

On to `CC(C)NCC(O)COc1cccc2[nH]ccc12` (centres unmarked) [Pindolol], for which, under setting [3], the “PPB (fb)” value is reported as 0.48.

Take `CCCn1c(=O)[nH]c(=O)c2[nH]cnc21` [Enprofylline]: the “PPB (fb)” value under setting [3] is reported as 0.45. With `O=C(NCC1CCCCN1)c1cc(OCC(F)(F)F)ccc1OCC(F)(F)F` (centres unmarked) [Flecainide], the “PPB (fb)” value under setting [1] is on record as 0.5. As to idoxuridine, where the note is “plasma”, the “PPB (fb)” value is on record as 0. Consider `C=CCN1C[C@H](C(=O)N(CCCN(C)C)C(=O)NCC)C[C@@H]2c3cccc4[nH]cc(c34)C[C@H]21` [cabergoline], for which, under setting [1], the “PPB (fb)” value is listed as 0.41. With `COC(C(=O)NC1C(=O)N2C1SC(C)(C)C2C(=O)O)c1cccc(F)c1` (centres unmarked) [penicillin45], the “PPB (fb)” value under setting [2] is 0.65.

For Rifabutin, where the note is “plasma”, the “PPB (fb)” value is 0.76. In the case of `CC(C)(C)NCC(O)c1cc(O)cc(O)c1` (centres unmarked) [Terbutaline], the “PPB (fb)” value under setting [2] is reported as 0.23. On to `O=C(O)c1cn(-c2ccccc2C(F)(F)F)c2cc(N3CCNCC3)c(F)cc2c1=O` [3a(o-CF3)], for which the “PPB (fb)” value under setting [1] was 0.38. As to `CCCc1cc(=O)[nH]c(=S)[nH]1` [Propylthiouracil], the “PPB (fb)” value under setting [1] is recorded as 0.81.

Consider `CCCN[C@H]1CCc2nc(N)sc2C1` [pramipexole], for which the “PPB (fb)” value under setting [2] is recorded as 0.15. For `CCN(C)C(=O)Oc1cccc([C@H](C)N(C)C)c1` [Rivastigmine], the “PPB (fb)” value (plasma) was 0.4. `Cc1ccsc1C(=CCCN1CCC[C@@H](C(=O)O)C1)c1sccc1C` [Tiagabine]: under setting [1], the “PPB (fb)” value is reported as 0.96. `CCC(O)(C(=O)O)c1cc2n(c(=O)c1CO)Cc1cc3c(CN(C)C)c(O)ccc3nc1-2` (centres unmarked) [Topotecan Carboxylic Acid]: the “PPB (fb)” value under setting [3] was 0.07. In the case of `CC1(C)O[C@@H]2[C@@H](CO[C@@]3(COS(N)(=O)=O)OC(C)(C)O[C@@H]23)O1` [topiramate], the “PPB (fb)” value under setting [3] is listed as 0.15.

For the compound `NCCc1ccc(O)c(O)c1` [dopamine], the “PPB (fb)” value under setting [1] is on record as 0.1. With `CC1(C)SC2C(NC(=O)C(Cl)c3ccc(Cl)c(Cl)c3)C(=O)N2C1C(=O)O` (centres unmarked) [penicillin25], the “PPB (fb)” value under setting [1] is 0.97. As to `CN(C)CCOc1ccc(/C(=C(/CCCl)c2ccccc2)c2ccccc2)cc1` [toremifene], the “PPB (fb)” value under setting [3] was 0.99.

`Clc1ccccc1C(c1ccccc1)(c1ccccc1)n1ccnc1` [clotrimazole]: the “PPB (fb)” value under setting [1] is listed as 0.5. Take `COC1=C(OC)C(=O)C(CCCCCCCCCCO)=C(C)C1=O` [idebenone]: under setting [2], the “PPB (fb)” value is 0.9. Consider `C#C[C@]1(O)CC[C@H]2[C@@H]3CCC4=CC(=NO)CC[C@@H]4[C@H]3CC[C@@]21CC` (mixture of isomers) [norelgestromin], for which the “PPB (fb)” value under setting [2] is recorded as 0.97.

As for Nimodipine, where the note is “plasma”, the “PPB (fb)” value is given as 0.98. Regarding `CC(=O)Nc1ccc(OCC(O)CNC(C)C)cc1` (centres unmarked) [practolol], the “PPB (fb)” value under setting [2] is listed as 0.3.

On to `CCC(Cc1c(I)cc(I)c(N)c1I)C(=O)O` (centres unmarked) [iopanoic acid], for which the “PPB (fb)” value under setting [2] is 0.79. Take `CC1=C(/C=C/C(C)=C/C=C/C(C)=C\C(=O)O)C(C)(C)CCC1` [isotretinoin]: under setting [2], the “PPB (fb)” value is listed as 0.95. In the case of `COc1ccc(C[C@@H]2c3cc(OC)c(OC)cc3CC[N@+]2(C)CCC(=O)OCCCCCOC(=O)CC[N@@+]2(C)CCc3cc(OC)c(OC)cc3[C@H]2Cc2ccc(OC)c(OC)c2)cc1OC` [Cisatracurium], under setting [3], the “PPB (fb)” value was 0.38. Turning to manidipine, where the note is “plasma”, the “PPB (fb)” value is 0.99. As to `CCCc1c2oc(C(=O)O)cc(=O)c2cc2c(=O)cc(C(=O)O)n(CC)c12` [nedocromil], the “PPB (fb)” value under setting [2] is listed as 0.8. As to `O=C(O)Cc1ccccc1Nc1c(Cl)cccc1Cl` [Diclofenac], the “PPB (fb)” value under setting [1] is 0.995.

Take `C[C@H]1[C@H](NC(=O)/C(=N\OC(C)(C)C(=O)O)c2csc(N)n2)C(=O)N1S(=O)(=O)O` [Aztreonam]: the “PPB (fb)” value under setting [3] was 0.58. lymecycline: the “PPB (fb)” value (plasma) is recorded as 0.45. Turning to `CCC(=O)O[C@]1(C(=O)SCF)[C@H](C)C[C@H]2[C@@H]3C[C@H](F)C4=CC(=O)C=C[C@]4(C)[C@@]3(F)[C@@H](O)C[C@@]21C` [Fluticasone propionate], the “PPB (fb)” value under setting [3] was 0.89. As for `O=NN(CCCl)C(=O)NCCCl` [Carmustine (BCNU)], under “plasma”, the “PPB (fb)” value is reported as 0.77.

As to `CC(=O)O[C@H]1C(=O)[C@@]2(C)[C@H]([C@H](OC(=O)c3ccccc3)[C@]3(O)C[C@H](OC(=O)[C@H](O)[C@@H](NC(=O)c4ccccc4)c4ccccc4)C(C)=C1C3(C)C)[C@]1(OC(C)=O)CO[C@@H]1C[C@@H]2O` [Paclitaxel], the “PPB (fb)” value under setting [3] is on record as 0.76. Regarding `O=C(NCCNCC(O)COc1ccc(O)cc1)N1CCOCC1` (centres unmarked) [Xamoterol], under setting [2], the “PPB (fb)” value is reported as 0.03. Gabapentin: the “PPB (fb)” value (plasma) is 0.02. With `CO/N=C(\C(=O)N[C@@H]1C(=O)N2C(C(=O)OCOC(=O)C(C)(C)C)=C(/C=C\c3scnc3C)CS[C@H]12)c1csc(N)n1` [cefditoren-pivoxil], the “PPB (fb)” value under setting [1] is 0.88.

On to `CN1C(=O)CC(=O)N(c2ccccc2)c2cc(Cl)ccc21` [clobazam], for which the “PPB (fb)” value (plasma) is recorded as 0.92. Consider `CC(=O)N(CC(O)CO)c1c(I)c(C(=O)NCC(O)CO)c(I)c(C(=O)NCC(O)CO)c1I` (centres unmarked) [Iohexol], for which the “PPB (fb)” value under setting [3] is recorded as 0.02.

With `OCC(CO)N[C@H]1C[C@](O)(CO)[C@@H](O)[C@H](O)[C@H]1O` [voglibose], the “PPB (fb)” value under setting [3] was 0.14. Regarding `N#CC(CCN1CCC(C(N)=O)(N2CCCCC2)CC1)(c1ccccc1)c1ccccc1` [Piritramide], the “PPB (fb)” value (plasma) was 0.94. For the compound `CCN(CC)CCOC(=O)c1ccc(N)cc1` [procaine], under setting [2], the “PPB (fb)” value was 0.06.

On to `C[C@]12CCC(=O)C=C1[C@@H]1C[C@@H]1[C@H]1[C@@H]3[C@@H]4C[C@@H]4[C@@]4(CCC(=O)O4)[C@@]3(C)CC[C@@H]12` [drospirenone], for which the “PPB (fb)” value under setting [2] is given as 0.97. Consider `CO[C@H]1O[C@@H]2O[C@@]3(C)CC[C@H]4[C@H](C)CC[C@@H]([C@H]1C)[C@@]24OO3` [artemether], for which the “PPB (fb)” value under setting [1] is on record as 0.5. In the case of spironolactone, for the setting “plasma”, the “PPB (fb)” value is on record as 0.98. Turning to `Cc1ccnc(NS(=O)(=O)c2ccc(N)cc2)n1` [sulfamerazine], under setting [2], the “PPB (fb)” value is recorded as 0.85.

For the compound `CN(C)CCCN1c2ccccc2Sc2ccc(Cl)cc21` [Chlorpromazine], the “PPB (fb)” value under setting [3] is reported as 0.96. For the compound `CN(C)c1nc(N(C)C)nc(N(C)C)n1` [altretamine], under setting [1], the “PPB (fb)” value is 0.94. For `Cc1ccc(-c2cc(C(F)(F)F)nn2-c2ccc(S(N)(=O)=O)cc2)cc1` [celecoxib], under setting [1], the “PPB (fb)” value was 0.97. For `CCC1(C)OC(=O)N(C)C1=O` (centres unmarked) [paramethadione], the “PPB (fb)” value under setting [2] is given as 0. On to `CCc1nn(CCCN2CCN(c3cccc(Cl)c3)CC2)c(=O)n1CCOc1ccccc1` [Nefazodone], for which the “PPB (fb)” value under setting [3] is reported as 0.99.
